In one data set the test system is SK-BR-3. As to the kind of experiment: Antiproliferation assay 7, SK-BR-3. Conditions: Homo sapiens; SK-BR-3 cells, 72 hours, CellTiter-Glo; read-out: Antiproli SK-BR-3 IC50 median. The class given is cell-based. As to the method:
(§1) Assessment of the Anti-Proliferative Effect of Compounds in Different Cell Lines
(§2) The impact of compounds on the proliferation of different cell lines was assessed using the CellTiter-Glo® Luminescent Cell Viability reagent from Promega (G7573).
(§3) In parallel, cells were plated in a reference (day 0) plate for time zero determination.
(§4) Rim wells were excluded. The cells were incubated for 72 hours in a humidified incubator at 37° C. The day 0 plate was measured by adding 30 μL/well of CTG solution (CellTiter-Glo® Luminescent Cell Viability reagent, Promega G7573) to time zero wells in the reference plate followed by a 10 minutes incubation and luminescence reading at 0.1 ms. using the PHERAstar FS microplate reader (BMG Labtech).
(§5) After 72 hours incubation, the treated plates were measured in the same way as the day 0 plate mentioned above.

Data set [1] has as its system SUDHL5. As to the kind of experiment: Induction of cytotoxicity (Assay 6), SUDHL5.
The test system of another data set is HMC-1-8. As to the kind of experiment: Antiproliferation assay 7, HMC-1-8. The class given is cell-based. The following applies: HMC-1-8 cells, CellTiter-Glo, read-out: Antiproli HMC-1-8 IC50 median. In a few lines: (§6)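 Luminescent ATP-based viability (CellTiter-Glo) measured after 72 hours of compound treatment at 37° C, alongside a time-zero plate read on the day of plating.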

Data set [2] has as its system SUDHL5. Nature of the data set: Antiproliferation assay 7, SUDHL5. The class given is cell-based. The following applies: SUDHL5 cells, CellTiter-Glo, read-out: Antiproli SUDHL5 IC50 (median). In a few lines: as §6
The test system of a further data set is MV-4-11. As to the kind of experiment: Antiproliferation assay 7, MV-4-11. The class given is cell-based. Conditions: MV-4-11 cells, CellTiter-Glo, read-out: Antiproli MV-4-11 IC50 median. In a few lines: as §6
The next data set concerns AMO-1. Nature of the data set: Antiproliferation assay 7, AMO-1. The class given is cell-based. Conditions: AMO-1 cells, CellTiter-Glo, read-out: Antiproli AMO-1 IC50 median. In a few lines:
as §6

In data set [3] the test system is SUDHL10. As to the kind of experiment: Induction of cytotoxicity (Assay 6), SUDHL10.
Data set [4] concerns SUDHL5. Nature of the data set: Induction of caspase-3/7 activity (Assay 4), SUDHL5. Conditions: SUDHL5 cells. The class given is cell-based. In a few lines:
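DLBCL cells treated with compounds for 3 hours at 37° C. Caspase-3/7 activity measured by Caspase-Glo 3/7 luminescence, with medium-only background subtracted.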

Data set [5] deals with SUDHL10. Nature of the data set: Induction of caspase-3/7 activity (Assay 4), SUDHL10. The following applies: SUDHL10 cells. The class given is cell-based. In a few lines:
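SUDHL10 DLBCL cells treated with compounds for 3 hours at 37 °C in a humidified incubator. Caspase-3/7 activity read with Caspase-Glo 3/7 luminescent reagent. Medium-only background subtracted from all values.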

Data set [6] concerns the target T1, MCL-1 (Homo sapiens (Human), UniProt Q07820, K194A/K197A/R201A). Nature of the data set: Protein-compound interaction assay (SPR assay 8). Type of data set: binding. The following applies: immobilized MBP-MCL-1, 25° C.; for Kd: read-out: KD (geo mean). An excerpt: Assay 8 Protein-Compound Interaction Assay (SPR Assay)
The ability of the compounds described in this invention to bind to MCL-1 may be determined using surface plasmon resonance (SPR). This allows for the quantification of binding in terms of the equilibrium dissociation constant (KD [M]), as well as association and dissociation rate constants (kon [1/M 1/s] and koff [1/s], respectively). The measurements may be performed using Biacore® T200 or Biacore® S200 instruments (GE Healthcare).
MBP-MCL-1 was diluted in 1×PBS-P+ (GE Healthcare) and injected on the activated chip surface. Subsequently, a solution of 1 M ethanolamine-HCl (GE Healthcare) was injected to block unreacted groups, resulting in approximately 400-2500 response units (RU) of immobilized protein. A reference surface was generated by treatment with NHS-EDC and ethanolamine-HCl.
The double-referenced sensorgrams were fit to a simple reversible Langmuir 1:1 reaction mechanism as implemented in the Biacore® T200 and S200 evaluation software (T200 evaluation software version 2.0 and S200 evaluation software version 1.0, GE Healthcare).

The target in data set [7] is T1, MCL-1. As to the kind of experiment: Protein-protein interaction assay MCL-1/Noxa BH3 peptide (MCL-1 Assay, TR-FRET). Conditions: read-out: MCL-1 Assay IC50 (median). The class given is binding.
The subject of data set [8] is SUDHL10. As to the kind of experiment: Antiproliferation assay 7, SUDHL10. The class given is cell-based. The following applies: Homo sapiens, SU-DHL10, 72 h, SUDHL10 cells, CellTiter-Glo, read-out: Antiproli SUDHL10 IC50 (median). As to the method:
as §1, §2, §3, §4, §5

[9] abbreviates: Homo sapiens, SU-DHL-5, 3 h, Caspase-Glo 3/7, read-out: Caspase SUDHL5 EC50 (median).
Setting [10] is: read-out: Cytotox SUDHL5 IC50 (median), SUDHL5 cells, 5 hours, CellTiter-Glo.
[11] abbreviates: read-out: Cytotox SUDHL10 IC50 (median), SUDHL10 cells, 5 hours, CellTiter-Glo.
[12] abbreviates: 3 hours, Caspase-Glo 3/7, read-out: Caspase SUDHL5 EC50 (median).
[13] abbreviates: 3 hours, Caspase-Glo 3/7, read-out: Caspase SUDHL10 EC50 (median).

Results on six compounds are retold here after patent publication US11447504B2, “Macrocyclic chlorine substituted indole derivatives” (Bayer Aktiengesellschaft, priority 2017, dated 2022).

Where a name gives a salt, the structure may show the parent alone. Read-outs that look alike come from different tables or passages of the source.

T1 sequence (Q07820 whole entry K194A/K197A/R201A, looked up): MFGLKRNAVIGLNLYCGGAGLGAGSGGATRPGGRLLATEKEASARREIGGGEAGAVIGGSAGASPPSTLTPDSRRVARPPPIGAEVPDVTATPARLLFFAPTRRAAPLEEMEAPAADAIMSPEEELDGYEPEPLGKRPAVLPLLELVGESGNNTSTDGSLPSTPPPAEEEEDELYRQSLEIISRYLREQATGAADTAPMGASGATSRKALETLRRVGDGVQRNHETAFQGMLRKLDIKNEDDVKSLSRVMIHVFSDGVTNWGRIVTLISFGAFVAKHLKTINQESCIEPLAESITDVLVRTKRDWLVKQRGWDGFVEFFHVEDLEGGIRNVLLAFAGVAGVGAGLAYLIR

As to `Cc1c2c(nn1C)CN(C)CCCCn1c(C(=O)O)c(CCCOc3cccc4ccccc34)c3ccc(Cl)c-2c31` (racemic) [Example 11, (rac)-4-chloro-2,3,14-trimethyl-7-[3-(naphthalen-1-yloxy)propyl]-10,11,12,13,14,15-hexahydro-2H-pyrazolo[3′,4′:8,9][1,6]diazacycloundecino[10,11,1-hi]indole-8-carboxylic Acid], the IC50 in the data set on SK-BR-3 was 1480 nM; in the data set on SUDHL5 [1] (Homo sapiens, SU-DHL-5, 5 h, read-out: Cytotox SUDHL5 IC50 (median), SUDHL5 cells, 5 hours, CellTiter-Glo), 180 nM; in the data set on HMC-1-8 (72 h), 4190 nM; with SUDHL5 [2] (Homo sapiens, SU-DHL-5, 72 h), 300 nM; in the data set on MV-4-11 (Homo sapiens, MV4-11, 72 h), 442 nM; with AMO-1 (Homo sapiens, AMO1, 72 h), 728 nM. The IC50 in the data set on SUDHL10 [3] (Homo sapiens, SU-DHL10, 5 h, read-out: Cytotox SUDHL10 IC50 (median), SUDHL10 cells, 5 hours, CellTiter-Glo) was found to be 370 nM. The EC50 in the data set on SUDHL5 [4] (setting [9]) is 140 nM; in the data set with SUDHL10 [5] (Homo sapiens, SU-DHL10, 3 h, Caspase-Glo 3/7, read-out: Caspase SUDHL10 EC50 (median)), 260 nM.
As to `Cc1c2c(nn1CCCN1CCN(C)CC1)COCCCCn1c(C(=O)O)c(CCCOc3cccc4ccccc34)c3ccc(Cl)c-2c31` (single isomer, unassigned; enantiomer 1) [Example 49, (+)-4-chloro-3-methyl-2-[3-(4-methylpiperazin-1-yl)propyl]-7-{3-[(naphthalen-1-yl)oxy]propyl}-2,10,11,12,13,15-hexahydropyrazolo[4′,3′:9,10][1,6]oxazacycloundecino[8,7,6-hi]indole-8-carboxylic Acid (Enantiomer 1)], the Kd on MCL-1 [6] came to 1.7 nM. In addition, the IC50 in the data set on SUDHL5 [1] (setting [10]) is 660 nM; on MCL-1 [7] it was 0.75 nM; in the data set with HMC-1-8 (72 hours), 3060 nM; in the data set with SUDHL5 [2] (72 hours) it was 480 nM; in the data set on AMO-1 (72 hours) it was 1340 nM; with SUDHL10 [3] (setting [11]), 620 nM. Besides, the EC50 in the data set with SUDHL5 [4] (setting [12]) stood at 520 nM; in the data set with SUDHL10 [5] (setting [13]), 450 nM.
For the compound `Cc1c2c(nn1C)CN(C)CCCCn1c(C(=O)O)c(CCCOc3cccc4cc(F)ccc34)c3ccc(Cl)c-2c31` (single isomer, unassigned; enantiomer 1) [Example 31, (+)-4-chloro-7-{3-[(6-fluoronaphthalen-1-yl)oxy]propyl}-2,3,14-trimethyl-10,11,12,13,14,15-hexahydro-2H-pyrazolo[3′,4′:8,9][1,6]diazacycloundecino[10,11,1-hi]indole-8-carboxylic acid-N-ethylethanamine Salt (Enantiomer 1)], the Kd on MCL-1 [6] was 0.43 nM. The IC50 came out at 53 nM with SUDHL5 [1] (setting [10]); 0.71 nM on MCL-1 [7]; 1920 nM with HMC-1-8 (72 hours); 53 nM with SUDHL5 [2] (72 hours); 275 nM with MV-4-11 (72 hours); 174 nM with AMO-1 (72 hours). In addition, the IC50 with SUDHL10 [3] (setting [11]) was 82 nM. For the same compound, the results for the EC50 on SUDHL5 [4] (setting [12]) and at SUDHL10 [5] (setting [13]) were 55 nM and 65 nM, respectively.
With `CCc1c2c(nn1C)COCCCCn1c(C(=O)O)c(CCCOc3cccc4ccccc34)c3ccc(Cl)c-2c31` (single isomer, unassigned; enantiomer 1) [Example 20, 4-chloro-3-ethyl-2-methyl-7-[3-(naphthalen-1-yloxy)propyl]-2,10,11,12,13,15-hexahydropyrazolo[4′,3′:9,10][1,6]oxazacycloundecino[8,7,6-hi]indole-8-carboxylic Acid (Enantiomer 1)], the IC50 in the data set with SK-BR-3 was 2520 nM; in the data set with SUDHL5 [1] (setting [10]), 170 nM; in the data set on SUDHL10 [8], 450 nM; in the data set on HMC-1-8 (72 h), 2470 nM; in the data set with SUDHL5 [2] (72 hours), 220 nM; in the data set with MV-4-11 (72 hours), 907 nM. The IC50 in the data set on AMO-1 (Homo sapiens, AMO1, 72 h) was found to be 874 nM. In addition, the EC50 in the data set with SUDHL5 [4] (setting [12]) was found to be 140 nM.
`Cc1c2c(nn1C)COCC1CC1Cn1c(C(=O)O)c(CCCOc3cccc4ccccc34)c3ccc(Cl)c-2c31` (single isomer, unassigned; stereoisomer 1) [Example 65, (9aS,10aR or 9aR, 10aS)-3-chloro-4,5-dimethyl-14-{3-[(naphthalen-1-yl)oxy]propyl}-5,7,9a, 10,10a, 11-hexahydro-9H-cyclopropa[3,4]pyrazolo[4′,3′:9,10][1,6]oxazacycloundecino-[8,7,6-hi]indole-13-carboxylic Acid—Stereoisomer 1]: at MCL-1 [6], the Kd came out at 3.6 nM. The IC50 was 410 nM with SUDHL5 [1] (setting [10]); 0.92 nM at MCL-1 [7]; 7580 nM with HMC-1-8 (72 hours); 1420 nM in the data set on AMO-1 (Homo sapiens, AMO1, 72 h); 400 nM in the data set on SUDHL10 [3] (setting [11]). In addition, the EC50 with SUDHL5 [4] (setting [9]) is 410 nM; in the data set with SUDHL10 [5] (setting [13]) it was 570 nM.
For the compound `Cc1c2c(nn1C)N(C)CCCCCn1c(C(=O)O)c(CCCOc3cccc4ccccc34)c3ccc(Cl)c-2c31` (single isomer, unassigned) [Example 72, (+)-4-chloro-2,3,15-trimethyl-7-{3-[(naphthalen-1-yl)oxy]propyl}-10,11,12,13,14,15-hexahydro-2H-pyrazolo[4′,3′:4,5][1,6]diazacycloundecino[3,2,1-hi]indole-8-carboxylic acid], the Kd at MCL-1 [6] worked out at 11 nM. In addition, the koff at MCL-1 [6] (read-out: koff (geo mean)) was determined as 0.016 s⁻¹. Also, the kon at MCL-1 [6] (read-out: kon (geo mean)) stood at 1.4e+06 M⁻¹ s⁻¹. For the same compound, the IC50 was 880 nM with SUDHL5 [1] (setting [10]); 0.96 nM on MCL-1 [7]; 19000 nM with HMC-1-8 (72 h); 1200 nM in the data set on SUDHL5 [2] (Homo sapiens, SU-DHL-5, 72 h); 1700 nM in the data set on AMO-1 (72 hours); 1600 nM in the data set with SUDHL10 [3] (setting [11]). The figures for the EC50 in the data set with SUDHL5 [4] (setting [12]) and in the data set with SUDHL10 [5] (setting [13]) were 700 nM and 1900 nM, respectively.
